Assay results: US20200085047A1, “Use of an Acyclic Picolinamide Compound as a Fungicide for Control of Phytopathogenic Fungi in Vegetables” (Dow AgroSciences LLC, priority 2017, published 2020)

What was measured:
Format in all cases: in vivo
[1] = test system: Mycovellosiella fulva; test: Field assessment of Mycovellosiella fulva (FULVFU) on tomato, curative; settings: 10% SC; for Percent control based on AUDPC, FULVFU, adjuvant II: Agnique BP420 (50% w/w at 0.3% v/v); for Percent control based on AUDPC, FULVFU, adjuvant I: no adjuvant
Description: Field assessment of Mycovellosiella fulva (FULVFU) on tomato:
A 10% SC formulation of compound I was tanked mixed with four different adjuvants: Agnique BP420 (50% w/w at 0.3% v/v); Trycol (50% w/w at 0.1% v/v); Ethomeen T18H (50% w/w at 0.2% v/v); and Phase II (50% w/w at 0.2% v/v). A fungicidal treatment containing formulations of compound I, either alone or with adjuvants, was sprayed on tomato plants four times, the first application approximately 3 months after planting, with the following three applications in 7-10 day intervals. Formulations of compound I were applied at rates of 50, 100, 150 and 200 grams of active ingredient per hectare (g ai/ha). The experimental plots were inoculated with the leaf mold pathogen 7 days before the first application (curative). The treatment was part of an experimental trial designed as a randomized complete block with four replications and a plot of approximately 2.5×1.4 m. Formulations of compound I were applied at water volume of 675 L/ha.
Disease severity was recorded as a percentage of visual diseased foliage (6 random plants per plot). Tomato leaf mold infection was assessed five times at 7 days after the first application (7 DAAA), 7 DAAB, 5 DAAC, followed by 7 and 12 DAAD. Area under the disease progress curve (AUDPC) was calculated for each plot using the sets of recorded severity data. Relative AUDPC (% control based on AUDPC) was calculated as percent of the nontreated control.

[2] = test system: Alternaria brassicicola; test: Field assessment of Alternaria brassicicola (ALTEBI) on cabbage, 2 day protectant; settings: 5% EC + Trycol
Description: Field assessment of Alternaria brassicicola (ALTEBI) on cabbage:
A fungicidal treatment containing Compound I, applied in a 5% EC formulation and tank mixed with an adjuvant (Trycol, 50% w/w at 0.2% v/v), was sprayed three times on head cabbage plants (BRSOL) with the first application at 10-12 LF stage of cabbage. The following applications were done at 7 day intervals will all applications being sprayed at rates of 50, 100, and 150 grams of active ingredient per hectare (g ai/ha). The experimental plots were inoculated with black leaf spot pathogen 2 days after the first application. The treatment was part of an experimental trial designed as a randomized complete block with four replications and a plot of approximately 2×1 m, with compound I being applied at water volume of 800 L/ha.
Disease severity was assessed as the percent diseased area of cabbage bottom foliage (6 plants per plot randomly). Visual infection was assessed three times during the trial at 7 days after each application. Area under the disease progress curve (AUDPC) was calculated for each plot using the sets of recorded severity data. Relative AUDPC (% control based on AUDPC) was calculated as percent of the nontreated control.

[3] = test system: Sclerotinia sclerotiorum; test: Field assessment of Sclerotinia sclerotiorum (SCLESC) on lettuce, 2 day protectant; settings: 5% EC + Trycol
Description: Field Assessment of Sclerotinia sclerotiorum (SCLESC) on Lettuce:
A fungicidal treatment containing a 5% EC formulation of compound I plus an adjuvant (Trycol, 50% w/w at 0.2% v/v), was sprayed on head lettuce plants (LACSC) twice, the first application at the heading stage 36 days after planting, and the second application 7 days later. Formulations of compound I were applied at rates of 50, 100, and 150 grams of active ingredient per hectare (g ai/ha). The experimental plots were inoculated with sclerotinia rot pathogen 2 days after the first application. The treatment was part of an experimental trial designed as a randomized complete block with four replications and a plot of approximately 2×1 m, with formulations of compound I being applied at water volume of 800 L/ha.
Disease infection percentage was calculated by the equation (stem lesion lengths)/(total stem lengths)×100% per plant (6 plants per plot randomly). Sclerotinia rot infection was assessed four times, 7 days after application A (DAAA) plus 7, 14 and 21 DAAB. Area under the disease progress curve (AUDPC) was calculated for each plot using the sets of recorded visual infection data. Relative AUDPC (% control based on AUDPC) was calculated as percent of the nontreated control.

[4] = test system: Alternaria solani; test: Field assessment of Alternaria solani (ALTESO) on tomato, trial 1 (inoculated); settings: for Percent disease control on tomato fruits (AUDPC), Trial 1, 5% EC: 5% EC + Agnique BP420, fruits; for Percent disease control on tomato leaves (AUDPC), Trial 1, 5% EC: 5% EC + Agnique BP420, leaves; for Percent disease control on tomato fruits (AUDPC), Trial 1, 10% SC: 10% SC + Agnique BP420, fruits; for Percent disease control on tomato leaves (AUDPC), Trial 1, 10% SC: 10% SC + Agnique BP420, leaves
Experimental: Field Assessment of Alternaria solani (ALTESO) on Tomato:
Assessment of compound I of ALTESO on tomato was performed in two separate field trials. In the first trial, a fungicidal treatment containing Compound I, applied in both a 5% EC and 10% SC formulation and tank mixed with an adjuvant (Agnique BP420, 50% w/w at 0.3% v/v), was sprayed on tomato plants (LYPES) at approximately 60-70 cm in height at rates of 100 and 200 grams of active ingredient per hectare (g ai/ha). The trial was based on five foliar applications at 7 day intervals with inoculation with the early blight pathogen 2 days after the first application. The treatment was part of an experimental trial designed as a randomized complete block with four replications and a plot of approximately 1.5×4 m. Compound I was applied at water volume of 1000 L/ha with an AZO backpack sprayer using compressed air.
Disease severity was recorded as percent diseased area on a random selection of 20 leaves and 20 fruits per plot. Percent control was assessed with 6 evaluations made between 0-35 days after the first application, DAA1. Area under the disease progress curve (AUDPC) was calculated for each plot using the sets of recorded severity data. Relative AUDPC (% control based on AUDPC) was calculated as percent of the nontreated control.

COc1ccnc(C(=O)N[C@@H](C)C(=O)O[C@@H](C)C(c2ccc(F)cc2)c2ccc(F)cc2)c1OC(C)=O [Compound I, (S)-1,1-bis(4-fluorophenyl)propan-2-yl (3-acetoxy-4-methoxypicolinoyl)-L-alaninate]
B (51-75): Percent control based on AUDPC, FULVFU, adjuvant IV ([1]; 100 g ai/ha, Ethomeen T18H (50% w/w at 0.2% v/v)) | Percent control based on AUDPC, ALTEBI 2 DP ([2]; 100 g ai/ha) | Percent control based on AUDPC, ALTEBI 2 DP ([2]; 150 g ai/ha) | Percent control based on AUDPC, SCLESC 2 DP ([3]; 50 g ai/ha)
C (26-50): Percent control based on AUDPC, FULVFU, adjuvant I ([1]; 50 g ai/ha) | Percent control based on AUDPC, FULVFU, adjuvant I ([1]; 100 g ai/ha) | Percent control based on AUDPC, ALTEBI 2 DP ([2]; 50 g ai/ha)
A (76-100): Percent control based on AUDPC, FULVFU, adjuvant II ([1]; 50 g ai/ha) | Percent control based on AUDPC, FULVFU, adjuvant II ([1]; 100 g ai/ha) | Percent control based on AUDPC, FULVFU, adjuvant V ([1]; 100 g ai/ha, Phase II (50% w/w at 0.2% v/v)) | Percent control based on AUDPC, FULVFU, adjuvant III ([1]; 100 g ai/ha, Trycol (50% w/w at 0.1% v/v)) | Percent control based on AUDPC, FULVFU, adjuvant II ([1]; 150 g ai/ha) | Percent control based on AUDPC, FULVFU, adjuvant II ([1]; 200 g ai/ha) | Percent control based on AUDPC, SCLESC 2 DP ([3]; 100 g ai/ha) | Percent control based on AUDPC, SCLESC 2 DP ([3]; 150 g ai/ha) | Percent disease control on tomato fruits (AUDPC), Trial 1, 5% EC ([4]; 100 g ai/ha) | Percent disease control on tomato leaves (AUDPC), Trial 1, 5% EC ([4]; 100 g ai/ha) | Percent disease control on tomato fruits (AUDPC), Trial 1, 10% SC ([4]; 100 g ai/ha) | Percent disease control on tomato leaves (AUDPC), Trial 1, 10% SC ([4]; 100 g ai/ha) | Percent disease control on tomato fruits (AUDPC), Trial 1, 5% EC ([4]; 200 g ai/ha) | Percent disease control on tomato leaves (AUDPC), Trial 1, 5% EC ([4]; 200 g ai/ha) | Percent disease control on tomato fruits (AUDPC), Trial 1, 10% SC ([4]; 200 g ai/ha) | Percent disease control on tomato leaves (AUDPC), Trial 1, 10% SC ([4]; 200 g ai/ha)
